ChEMBL document CHEMBL5543087 (Eur J Med Chem, 2024)
Structures can show the parent of a compound that is named as a salt. Numbered stars: 1 amine (or outer) side, 2 acyl side, 3 side chain; on linkers, the order of the positions; unused ones are H or OH. Square brackets hold non-standard residues; d marks the D form. Peptide text beside a SMILES is read from it. * marks the point of attachment. X2 = C[C@@](N[*:1])(C(=O)[*:2])C(F)(F)F; X1 = C[C@](N[*:1])(C(=O)[*:2])C(F)(F)F; Sta = CC(C)C[C@H](N)[C@@H](O)CC(=O)O; Cbz = O=C(OCc1ccccc1)*; Tfa = O=C(C(F)(F)F)*

Legend:
SK-OV-3 [1] = test: Cytotoxicity against human SK-OV-3 cells assessed as increase in LDH activity incubated for 24 hrs; type: toxicity, cell-based; settings: sk-ov-3, 24 h
[2] = Inhibition of porcine gastric mucosa Pepsin using MCA labeled GKPILFFRLK(DNP)-D-R-NH2 as substrate preincubated for 10 mins followed by substrate addition by FRET assay; set-up: species or system Sus scrofa
SK-OV-3 [3] = test: Cytotoxicity against human SK-OV-3 cells assessed as increase in LDH activity at 40 uM incubated upto 96 hrs; type: toxicity, cell-based; settings: sk-ov-3, 96 h
SK-OV-3 [4] = test: Cytotoxicity against human SK-OV-3 cells assessed as change in fibronectin matrix organization at IC50 incubated for 24 hrs by phalloidin fluorescent staining analysis; type: toxicity, cell-based; settings: sk-ov-3, 24 h
SK-OV-3 [5] = test: Cytotoxicity against human SK-OV-3 cells assessed as change in nucleus morphology at IC50 incubated for 24 hrs by DAPI fluorescent staining analysis; type: toxicity, cell-based; settings: sk-ov-3, 24 h
SK-OV-3 [6] = test: Cytotoxicity against human SK-OV-3 cells assessed as change in cell morphology at IC50 incubated for 24 hrs by DAPI fluorescent staining analysis; type: toxicity, cell-based; settings: sk-ov-3, 24 h
[7] = Lipophilicity, logP of compound in n-Octanol/water; type: physicochemical
SK-OV-3 [8] = test: Cytotoxicity against human SK-OV-3 cells assessed as change in fibronectin matrix organization at 40 uM incubated for 24 hrs by phalloidin fluorescent staining analysis; type: toxicity, cell-based; settings: sk-ov-3, 24 h
[9] = Chromatographic hydrophobicity index of compound incubated for 20 mins by reversed-phase HPLC analysis; type: ADME
SK-OV-3 [10] = test: Cytotoxicity against human SK-OV-3 cells assessed as increase in LDH activity at IC50 incubated upto 96 hrs; type: toxicity, cell-based; settings: sk-ov-3, 96 h
SK-OV-3 [11] = test: Cytotoxicity against human SK-OV-3 cells assessed as change in cell cytoskeleton at IC50 incubated for 24 hrs by phalloidin fluorescent staining analysis; type: toxicity, cell-based; settings: sk-ov-3, 24 h
SK-OV-3 [12] = test: Cytotoxicity against human SK-OV-3 cells assessed as change in cell cytoskeleton at 40 uM incubated for 24 hrs by phalloidin fluorescent staining analysis; type: toxicity, cell-based; settings: sk-ov-3, 24 h
SK-OV-3 [13] = test: Cytotoxicity against human SK-OV-3 cells assessed as cell retraction at 40 uM incubated for 24 hrs by DAPI fluorescent staining analysis; type: toxicity, cell-based; settings: sk-ov-3, 24 h
BJ [14] = test: Cytotoxicity against human BJ cells assessed as increase in LDH activity at IC50 incubated upto 96 hrs; type: toxicity, cell-based
BJ [15] = test: Cytotoxicity against human BJ cells assessed as increase in LDH activity incubated for 24 hrs; type: toxicity, cell-based
SK-OV-3 [16] = test: Cytotoxicity against human SK-OV-3 cells assessed as diffused F-actin network at IC50 incubated for 24 hrs by phalloidin fluorescent staining analysis; type: toxicity, cell-based; settings: sk-ov-3, 24 h
SK-OV-3 [17] = test: Cytotoxicity against human SK-OV-3 cells assessed as change in fibronectin matrix organization at 28 uM incubated for 24 hrs by phalloidin fluorescent staining analysis; type: toxicity, cell-based; settings: sk-ov-3, 24 h
SK-OV-3 [18] = test: Cytotoxicity against human SK-OV-3 cells assessed as increase in LDH activity at 28 uM incubated upto 96 hrs; type: toxicity, cell-based; settings: sk-ov-3, 96 h
SK-OV-3 [19] = test: Cytotoxicity against human SK-OV-3 cells assessed as change in cell cytoskeleton at 28 uM incubated for 24 hrs by phalloidin fluorescent staining analysis; type: toxicity, cell-based; settings: sk-ov-3, 24 h
SK-OV-3 [20] = test: Cytotoxicity against human SK-OV-3 cells assessed as cell retraction at 28 uM incubated for 24 hrs by DAPI fluorescent staining analysis; type: toxicity, cell-based; settings: sk-ov-3, 24 h
Cathepsin D = Cathepsin D (Homo sapiens, UniProt P07339); test: Inhibition of human Cathepsin D using MCA labeled GKPILFFRLK(DNP)-D-R-NH2 as substrate preincubated for 10 mins followed by substrate addition by FRET assay
Cathepsin D, sequence (P07339 65-162 limits assumed): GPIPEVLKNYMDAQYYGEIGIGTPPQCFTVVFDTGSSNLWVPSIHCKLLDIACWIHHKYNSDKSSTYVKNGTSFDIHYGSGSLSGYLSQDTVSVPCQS
Cathepsin D, sequence (P07339 169-412 limits assumed): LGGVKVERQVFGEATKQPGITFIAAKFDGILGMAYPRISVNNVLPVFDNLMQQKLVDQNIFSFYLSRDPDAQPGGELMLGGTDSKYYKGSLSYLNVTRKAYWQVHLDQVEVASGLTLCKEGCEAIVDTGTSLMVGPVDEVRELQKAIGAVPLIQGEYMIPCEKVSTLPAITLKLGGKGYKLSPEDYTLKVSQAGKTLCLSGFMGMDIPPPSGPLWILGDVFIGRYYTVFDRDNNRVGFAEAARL

| IC50 [2] [nM] | logP [7] | CHI [9] | SMILES | Activity (SK-OV-3 [1]) | Activity (BJ [15]) | also measured |
| --- | --- | --- | --- | --- | --- | --- |
| 31 | 3.3 | 45.85 | CC(C)CC(=O)N[C@H](CCSC(F)(F)F)C(=O)N[C@H](C(=O)N[C@@H](CC(C)C)[C@@H](O)CC(=O)N[C@@H](C)C(=O)N[C@@H](CC(C)C)[C@@H](O)CC(=O)O)C(C)C | Non-Toxic | Non-Toxic | Activity (SK-OV-3 [3]): Toxic; Activity (SK-OV-3 [4]): Toxic; Activity (SK-OV-3 [5]): Toxic; Activity (SK-OV-3 [6]): Toxic; Activity (SK-OV-3 [8]): Toxic; Activity (SK-OV-3 [10]): Non-Toxic; Activity (SK-OV-3 [11]): Toxic; Activity (SK-OV-3 [12]): Toxic; Activity (SK-OV-3 [13]): Toxic; Activity (BJ [14]): Non-Toxic; Activity (SK-OV-3 [16]): Toxic |
| 193 | – | – | CC(C)CC(=O)N[C@@H](C(=O)N[C@H](C(=O)N[C@@H](CCSC(F)(F)F)[C@@H](O)CC(=O)N[C@@H](C)C(=O)N[C@@H](CC(C)C)[C@@H](O)CC(=O)O)C(C)C)C(C)C | – | – | – |
| 48 | 3.36 | 47.24 | CC(C)C[C@H](NC(=O)[C@H](C)NC(=O)C[C@H](O)[C@H](CC(C)C)NC(=O)[C@@H](NC(=O)[C@](C)(NC(=O)OCc1ccccc1)C(F)(F)F)C(C)C)[C@@H](O)CC(=O)O (Cbz-[X1]V[Sta]A[Sta]-OH) | Non-Toxic | Non-Toxic | Activity (SK-OV-3 [17]): Toxic; Activity (SK-OV-3 [18]): Toxic; Activity (SK-OV-3 [4]): Toxic; Activity (SK-OV-3 [5]): Toxic; Activity (SK-OV-3 [19]): Toxic; Activity (SK-OV-3 [6]): Toxic; Activity (SK-OV-3 [10]): Non-Toxic; Activity (SK-OV-3 [11]): Toxic; Activity (BJ [14]): Non-Toxic; Activity (SK-OV-3 [20]): Toxic; Activity (SK-OV-3 [16]): Toxic |
| 375 | 3.97 | 49.19 | CC(C)C[C@H](NC(=O)[C@H](C)NC(=O)C[C@H](O)[C@H](CC(C)C)NC(=O)[C@@H](NC(=O)[C@@](C)(NC(=O)OCc1ccccc1)C(F)(F)F)C(C)C)[C@@H](O)CC(=O)O (Cbz-[X2]V[Sta]A[Sta]-OH) | Non-Toxic | Non-Toxic | – |
| > 4000 | 2.44 | 43.68 | CC(C)C[C@H](NC(=O)[C@H](C)NC(=O)C[C@H](O)[C@H](CC(C)C)NC(=O)[C@@H](NC(=O)[C@@H](NC(=O)C(F)(F)F)C(C)C)C(C)C)[C@@H](O)CC(=O)O (Tfa-VV[Sta]A[Sta]-OH) | – | – | IC50 (Cathepsin D): > 2000 nM |

The remaining lines, values behind:

| SMILES | IC50 [2] [nM] | logP [7] | CHI [9] | Activity (SK-OV-3 [1]) | Activity (BJ [15]) | also measured |
| --- | --- | --- | --- | --- | --- | --- |
| CC(C)CC(=O)N[C@@H](C(=O)N[C@H](C(=O)N[C@@H](CC(C)C)[C@@H](O)CC(=O)N[C@@H](C)C(=O)N[C@@H](CC(C)C)[C@@H](O)CC(=O)O)C(C)C)C(C)C | 21 | – | – | Non-Toxic | Non-Toxic | – |
| CC(C)CC(=O)N[C@@H](CCSC(F)(F)F)C(=O)N[C@H](C(=O)N[C@@H](CC(C)C)[C@@H](O)CC(=O)N[C@@H](C)C(=O)N[C@@H](CC(C)C)[C@@H](O)CC(=O)O)C(C)C | 775 | 3.33 | 46.95 | Non-Toxic | Non-Toxic | – |
| CC(C)CC(=O)N[C@H](C(=O)N[C@H](C(=O)N[C@@H](CC(C)C)[C@@H](O)CC(=O)N[C@@H](C)C(=O)N[C@@H](CC(C)C)[C@@H](O)CC(=O)O)C(C)C)C(C)C [PEPSTATIN] | 50 | 2.37 | 39.55 | – | – | – |
